Consider 8 substances from patent US20220280594A1, “APPLICATION OF POLYPEPTIDE OR DERIVATIVE THEREOF” (CHENGDU HUITAI BIOMEDICINE CO., LTD., priority 2019, published 2022).

Ends that are not written are not given here. PEG = not defined here

The subject of data set [1] is human lung cancer cells (A549) subcutaneous xenograft. Nature of the data set: lung cancer subcutaneous xenograft animal model, intratumoral injection. The following applies: intratumoral 5 mg/kg once every other day. Type of data set: in vivo, mice (BALB/c-nu/nu). As to the method: (§1) Experimental animals: 4-6 weeks old female immunodeficiency mice (BALB/c-nu/nu, Beijing Vital River Laboratory Animal Technology Co., Ltd.).
(§2) Subcutaneous xenograft animal model. The number of cells inoculated subcutaneously vin mice was about 2×10^6/200 μL. When the volume of the subcutaneous tumor was greater than 100 mm^3, the mice were randomly divided into groups and subjected to treatment. When the mass volume of the tumors in model control group reached 2000 mm^3 or the animal dies, the treatment ended. The animals were dissected, the tumors were taken out, and the weight and volume of the tumors were measured. During the period of the entire experiment, the mice were observed and the body weight was measured every other day.
The method used for the drug efficacy test in the animal model of the subcutaneous xenograft derived from lung cancer cells was as described in Example 5. The tumor cells were human lung cancer cells (A549), and the route of administration was intratumoral injection. There were two groups: the model control group and the polypeptide or its derivative treatment group (N1-N12). The drug dosage of the treatment group was 5 mg/kg, once every other day and the treatment time was 10 days.
The procedure of the efficacy test in this example, route and dosage of administration were the same as in Example 9. The peptides used in the experiment were N13-N32. The treatment time was 20 days.

Data set [2] has the same test system. The data set is described as follows: lung cancer subcutaneous xenograft animal model, intravenous injection. It is filed as in vivo, mice (BALB/c-nu/nu). The settings on record: intravenous 60 mg/kg once every other day, 20 days; for Weight of tumor (g) (mean ± SD): control 2.53 ± 0.17; for Volume of tumor (mm^3) (mean ± SD): control 3373.26 ± 581.44. Summed up:
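Female BALB/c-nu/nu mice (4-6 weeks) inoculated subcutaneously with ~2×10^6 A549 cells; grouped once tumours exceeded 100 mm^3. Peptides given intravenously at 60 mg/kg for 20 days versus model control. Tumour weight and volume measured at dissection; body weight recorded every other day.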

Data set [3] relates to human pancreatic cancer cells (PANC-1) subcutaneous xenograft. The data set is described as follows: pancreatic cancer subcutaneous xenograft animal model, intratumoral injection. Type of data set: in vivo, mice (BALB/c-nu/nu). The settings on record: PANC-1 xenograft, intratumoral 5 mg/kg once every other day, 25 days; for Weight of tumor (g) (mean ± SD): control 1.2 ± 0.11; for Volume of tumor (mm^3) (mean ± SD): control 1431.72 ± 174.33. As to the method: as §1, §2
The method used in the efficacy test on the pancreatic cancer subcutaneous xenograft animal model was as described in Example 5. The pancreatic cancer cells were human pancreatic cancer cells (PANC-1), and the route of administration was intratumoral injection. The experimental groups were model control group and polypeptide or derivative thereof treatment groups (N1-N12). The drug dosage of the N1-N12 treatment group was 5mg/kg, once every other day, and the treatment time was 25 days.

The next data set has as its system fibronectin. The data set is described as follows: fibronectin expression in SK-HEP-1 cells (ELISA). The settings on record: SK-HEP-1, 10 μM, 24 hours, control group 1.62 ± 0.09. Type of data set: cell-based, human. As to the method: (§3) SK-HEP-1 cells were cultured in vitro, cells in the logarithmic growth phase were collected, and the cells were seeded evenly in a 24-well plate at a density of 1-3×10^5 cells/well. The cells were cultured in a cell incubator for 4-5 h. PBS was added to the control group. PBS containing polypeptide or derivative thereof (N1-N12) was added to the treatment group. The final concentration of the polypeptide or derivative thereof in the well was 10 μM. After incubating for 24 hours, the cells were collected and the total protein was extracted. ELISA was used to detect the content of fibronectin in total protein.
Background: In an ELISA, binding on a coated surface is turned into a signal by an enzyme label.

The subject of the next data set is vimentin. Nature of the data set: vimentin expression in SK-HEP-1 cells (ELISA). The following applies: SK-HEP-1, 10 μM, 24 hours, control group 1.2 ± 0.01. It is filed as cell-based, human. As to the method: as §3
The experimental method for testing the inhibition on the expression of vimentin in human liver adenocarcinoma cells (SK-HEP-1) by the polypeptide or derivative thereof (N1-N12) was as described in Example 19.

For data set [4], the system named is human breast cancer cells (MDA-MB-453). Nature of the data set: scratch assay, migration of MDA-MB-453 cells. The settings on record: MDA-MB-453, 10 μM, 48 hours; control group 32.42 ± 2.04. Type of data set: cell-based. The essentials: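 Confluent MDA-MB-453 monolayers were scratched, then treated with peptide at 10 μM in 2% FBS medium for 48 h, with a PBS control and triplicate wells. Migration rate (%) was taken as (original − current scratch width)/original width ×100 from images.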

Data set [5] has as its system human melanoma cells (A375). Nature of the data set: scratch assay, migration of A375 cells. It is filed as cell-based. The following applies: A375, 10 μM, 48 hours; control group 44.03 ± 6.21. The essentials: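 Monolayers scratched, washed with PBS and cultured 48 hours in 2% FBS medium with polypeptides N1-N54 at 10 μM or PBS control, three wells per group. Migration rate (%) = (original − current scratch width)/original width×100, from imaged scratch widths.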

Data set [6] is described as follows: effect on coagulation function in mice (ACT). It is filed as in vivo, C57BL/6J mice. The following applies: 200 mg/kg tail vein once a day until Day 24, blood on Day 25; control group 73.50 ± 7.15. As to the method:
C57BL/6J mice were used as experimental subjects (purchased from Chengdu Dashuo Experimental Animal Co., Ltd., male, weighing 16-17 g). Sterile saline or peptide drugs were injected via the tail vein once a day until Day 24. The mice in the control group were injected with sterile saline, and the mice in the administration groups (N1-N12) were injected with polypeptide drugs (200 mg/kg). There were three experimental animals in each group. On Day 25, the eyeballs were removed and blood ([…]) was taken. The coagulation function of the mice was detected by the Abbott i-STAT blood gas analyzer with the ACT test card.

The mark [7] stands for this setting: 10 days, control 1269.32 ± 115.39.
Where [8] appears, read: 20 days, control 1700.16 ± 305.72.

As to “N1: polypeptide with the amino acid sequence set forth in SEQ ID NO: 1 (YRVRFLAKENVTQDAEDN)”, the “Weight of tumor (g) (mean ± SD)” value in data set [1] (10 days, control 1.45 ± 0.15) amounted to 0.87 ± 0.08 g; in data set [2] it was 1.01 ± 0.2 g; in data set [3], 0.52 ± 0.13 g. Further, the “Volume of tumor (mm^3) (mean ± SD)” value in data set [1] (setting [7]) was 851.64 ± 67.38 mm^3; in data set [2], 1340.25 ± 319.59 mm^3; in data set [3], 704.1 ± 152.43 mm^3. Moreover, in the data set with fibronectin, the “Relative protein level (mean ± SD, P), fibronectin” value was 1.3 ± 0.02,**. Moreover, the “Relative protein level (mean ± SD, P), vimentin” value in the data set with vimentin is 0.97 ± 0.03, ***. In addition, the “Migration rate (%) (mean ± SD, P)” value in data set [4] is reported as 13.05 ± 2.05,** %; in data set [5] it was 8.49 ± 2.99,*** %. The “Activated clotting time (s) (mean ± SD)” value in data set [6] turned out to be 73.64 ± 9.31 s.

For the substance “N2: SEQ ID NO: 1 with deletion of one amino acid (position 18) at the carboxyl terminal (YRVRFLAKENVTQDAED)”, the “Weight of tumor (g) (mean ± SD)” value is reported as 0.86 ± 0.13 g in data set [1] (10 days, control 1.45 ± 0.15); 0.6 ± 0.28 g in data set [2]; 0.72 ± 0.12 g in data set [3]. Besides, the “Volume of tumor (mm^3) (mean ± SD)” value is listed as 809.89 ± 129.93 mm^3 in data set [1] (setting [7]), 1297.28 ± 359.77 mm^3 in data set [2] and 761.37 ± 150.52 mm^3 in data set [3]. Besides, the “Relative protein level (mean ± SD, P), fibronectin” value in the data set with fibronectin is listed as 1.23 ± 0.08,**. The “Relative protein level (mean ± SD, P), vimentin” value in the data set on vimentin was 0.91 ± 0.03, ****. For the same substance, the “Migration rate (%) (mean ± SD, P)” value is 12.96 ± 3.13,** % in data set [4] and 6.52 ± 1.25,*** % in data set [5]. For the same substance, the “Activated clotting time (s) (mean ± SD)” value in data set [6] is reported as 74.82 ± 9.62 s.

With “N3: SEQ ID NO: 1 with deletion of position 18 and PEG modification at the amino terminal ({PEG}-YRVRFLAKENVTQDAED; reading uncertain)”, the “Weight of tumor (g) (mean ± SD)” value is given as 0.79 ± 0.18 g in data set [1] (10 days, control 1.45 ± 0.15); 0.56 ± 0.16 g in data set [2]; 0.6 ± 0.1 g in data set [3]. Also, the “Volume of tumor (mm^3) (mean ± SD)” value was 712.59 ± 200.32 mm^3 in data set [1] (setting [7]), 1511.56 ± 433.12 mm^3 in data set [2] and 695.11 ± 111.9 mm^3 in data set [3]. Moreover, the “Relative protein level (mean ± SD, P), fibronectin” value with fibronectin was 1.26 ± 0.09,**. Further, the “Relative protein level (mean ± SD, P), vimentin” value with vimentin is 0.96 ± 0.05, **. In addition, the “Migration rate (%) (mean ± SD, P)” value in data set [4] is recorded as 13.04 ± 3.5,** %; in data set [5], 4.91 ± 1.19,*** %. The “Activated clotting time (s) (mean ± SD)” value in data set [6] is 72.55 ± 8.27 s.

Take “N4: SEQ ID NO: 1 with deletion of positions 15-18 and positions 1-3 (RFLAKENVTQD)”: the “Weight of tumor (g) (mean ± SD)” value in data set [1] (10 days, control 1.45 ± 0.15) worked out at 0.63 ± 0.12 g; in data set [2] it was 0.56 ± 0.19 g; in data set [3] it was 0.62 ± 0.07 g. Also, the “Volume of tumor (mm^3) (mean ± SD)” value was found to be 740.79 ± 140.87 mm^3 in data set [1] (setting [7]), 1515.07 ± 507.99 mm^3 in data set [2] and 673.03 ± 157.33 mm^3 in data set [3]. Further, in the data set on fibronectin, the “Relative protein level (mean ± SD, P), fibronectin” value is recorded as 1.23 ± 0.11,**. Also, the “Relative protein level (mean ± SD, P), vimentin” value in the data set with vimentin is 0.95 ± 0.03, ***. For the same substance, the “Migration rate (%) (mean ± SD, P)” value in data set [4] was 15.74 ± 4.83,* %; in data set [5], 5.06 ± 2.32,*** %. In data set [6], the “Activated clotting time (s) (mean ± SD)” value was determined as 73.64 ± 8.12 s.

Regarding “N29: SEQ ID NO: 1 with deletion of positions 1-5 and 15-18 and PEG modification at the amino terminal ({PEG}-LAKENVTQD; reading uncertain)”, the “Weight of tumor (g) (mean ± SD)” value in data set [1] (20 days, control 1.92 ± 0.13) stood at 0.82 ± 0.22 g; in data set [2], 1 ± 0.17 g. Moreover, the “Volume of tumor (mm^3) (mean ± SD)” value in data set [1] (setting [8]) is 949 ± 227.4 mm^3; in data set [2], 1365.48 ± 435.32 mm^3. The “Migration rate (%) (mean ± SD, P)” value was 13.73 ± 3.29,** % in data set [4] and 14.01 ± 4.22,*** % in data set [5].

On to “N30: SEQ ID NO: 1 with deletion of positions 1-5 and 15-18 and PEG modification at the carboxyl terminal (LAKENVTQD-{PEG}; reading uncertain)”, for which the “Weight of tumor (g) (mean ± SD)” value was determined as 0.9 ± 0.22 g in data set [1] (20 days, control 1.92 ± 0.13) and 1.01 ± 0.34 g in data set [2]. The entries for the “Volume of tumor (mm^3) (mean ± SD)” value in data set [1] (setting [8]) and in data set [2] were 913.9 ± 204.07 mm^3 and 1187.13 ± 246.31 mm^3, respectively. In addition, the “Migration rate (%) (mean ± SD, P)” value is 15.77 ± 2.33,*** % in data set [4] and 6.96 ± 2.18,*** % in data set [5].

As to “N31: SEQ ID NO: 1 with deletion of positions 3, 4, 11 and 15-18 and PEG modification at the carboxyl terminal (YRFLAKENTQD-{PEG}; reading uncertain)”, the “Weight of tumor (g) (mean ± SD)” value in data set [1] (20 days, control 1.92 ± 0.13) is given as 0.71 ± 0.16 g; in data set [2], 0.62 ± 0.2 g. In addition, the “Volume of tumor (mm^3) (mean ± SD)” value in data set [1] (setting [8]) was 900.88 ± 255.61 mm^3; in data set [2] it was 1439.74 ± 546.27 mm^3. The “Migration rate (%) (mean ± SD, P)” value is given as 10.49 ± 3.13,*** % in data set [4] and 12.5 ± 2.29,*** % in data set [5].

For the substance “N32: SEQ ID NO: 1 with deletion of positions 1-3, addition of one amino acid and PEG modification at the carboxyl terminal (RFLAKENVTQDAEDNC-{PEG}; reading uncertain)”, the “Weight of tumor (g) (mean ± SD)” value in data set [1] (20 days, control 1.92 ± 0.13) amounted to 0.88 ± 0.25 g; in data set [2], 0.88 ± 0.38 g. Moreover, the “Volume of tumor (mm^3) (mean ± SD)” value in data set [1] (setting [8]) is listed as 984.03 ± 184.86 mm^3; in data set [2] it was 1630.6 ± 424.84 mm^3. For the same substance, the “Migration rate (%) (mean ± SD, P)” value is 17.55 ± 3.48,** % in data set [4] and 18.22 ± 3.95,** % in data set [5].
